Experiments:
[1] = system: LLO91-99-specific T cells; experiment: 3H-thymidine incorporation proliferation assay of multimer-treated T cells; format: cell-based; settings: reagent remains on the cell surface
Protocol: FIG. 3: Interference of MHC multimer staining with T cell function in vitro. (a) LLO91-99-specific T cells were stained for 2 hours with binding (LLO91-99/H2-K^d) or non-binding (p60217-225/H2-K^d) streptavidin-PE tetramer (“tet”) reagents at 4° C. or 37° C. MHC tetramer staining (upper), TCR expression (middle, filled black graph hidden behind TCR^high populations), and annexin V binding (lower) are shown in histogram format. (b) Immunofluorescence staining of LLO91-99-specific T cells one hour after incubation with LLO91-99/H2-K^d streptavidin-Alexa546 tetramers (red) at 4° C. or 37° C. (c) LLO91-99-specific T cells stained for 30 min with binding or non-binding tetramer reagents at 4° C., were then washed to remove unbound reagent and transferred to a chromium release assay (effector to target ratio approx. 5:1). LLO91-99 peptide concentration and percent specific lysis are shown on the x- and y-axes, respectively. […]
FIG. 7: Reversible MHC multimer staining and T cell function. […] (a) Staining for recombinant MHC-molecules (detected by epitope-tag staining, x-axis) on differently treated T cells. […] Numbers of viable bacteria (y-axis) were determined 48 h following Lysteria infection. […]

[2] = system: LLO91-99-specific T cells; experiment: 51Cr-release cytotoxicity assay of multimer-treated CTLs; format: cell-based
Protocol: (§1) FIG. 3: Interference of MHC multimer staining with T cell function in vitro. (a) LLO91-99-specific T cells were stained for 2 hours with binding (LLO91-99/H2-K^d) or non-binding (p60217-225/H2-K^d) streptavidin-PE tetramer (“tet”) reagents at 4° C. or 37° C. MHC tetramer staining (upper), TCR expression (middle, filled black graph hidden behind TCR^high populations), and annexin V binding (lower) are shown in histogram format. (b) Immunofluorescence staining of LLO91-99-specific T cells one hour after incubation with LLO91-99/H2-K^d streptavidin-Alexa546 tetramers (red) at 4° C. or 37° C. (c) LLO91-99-specific T cells stained for 30 min with binding or non-binding tetramer reagents at 4° C., were then washed to remove unbound reagent and transferred to a chromium release assay (effector to target ratio approx. 5:1). LLO91-99 peptide concentration and percent specific lysis are shown on the x- and y-axes, respectively. The bars indicate lysis of MHC mismatched target cells (10^−8 M LLO91-99 peptide and no peptide conditions only) by effector cells treated with non-binding MHC tetramer reagents (filled bars) or binding reagents (open bars). (d) LLO91-99-specific T cells were treated as in (c), transferred into a proliferation assay in the presence of syngeneic irradiated splenocytes, and stimulated in the presence of peptide or various mitogens (x-axis).
FIG. 7: Reversible MHC multimer staining and T cell function. LLO91-99-specific T cells were stained for 30 min with binding LLO91-99/H2-K^d Strep-tag® II peptide/β2m-Strep-tag® II peptide-HSV-tag:Strep-Tactin® polypeptide (IBA GmbH) or non-binding (p60217-225/H2-K^d) multimer reagents and then extensively washed over 4 h in the presence or absence or d-biotin (1 mM, all done at 4° C.) prior to assays or adoptive transfer. (a) Staining for recombinant MHC-molecules (detected by epitope-tag staining, x-axis) on differently treated T cells. […] Numbers of viable bacteria (y-axis) were determined 48 h following Lysteria infection. […]

[3] = system: Listeria monocytogenes; experiment: adoptive transfer of multimer-treated T cells, protection against Listeria infection; format: in vivo, BALB/c mice
From the text: Six hours later, mice were infected with 2×10^4 Listeria monocytogenes. […] Control mice received NaCl only.
(a) Staining for recombinant MHC-molecules (detected by epitope-tag staining, x-axis) on differently treated T cells. (b) Cytotoxicity (% specific lysis, y-axis) of differently treated T cells in response to LLO91-99 peptide-coated target cells (peptide titration, x-axis) with an effector to target cell ratio of approx. 5:1, compare with FIG. 1c. (c) Proliferation (y-axis) of differently treated T cells stimulated with epitope or various mitogens (indicated on the x-axis) in the presence of syngeneic irradiated splenocytes. Compare with FIG. 1d. (d) Protection against Lysteria monocytogenes infection following adoptive transfer of 4.1×10^6 LLO91-99-specific T cells treated with binding (LLO91-99) or non-binding (p60217-225) MHC multimer reagents (indicated to the left). […] Numbers of viable bacteria (y-axis) were determined 48 h following Lysteria infection. Data are representative of three independent experiments, each with 2 mice per group.
LLO91-99 specific T cells were stained with H2-K^d Strep-tag® II peptide multimer reagents (IBA GmbH) at 4° C. […] Adoptive cell transfer was performed by injection of 1×10^7 cells—per mouse per group—into the tail vein of naive BALB/c mice.

[4] = system: LLO91-99-specific T cells; experiment: MHC tetramer staining, TCR expression, annexin V binding and immunofluorescence of T cells; format: cell-based
Protocol: as §1
LLO91-99 specific T cell lines were expanded in vitro as described before (18). MHC-multimer staining was performed by incubation of approximately 2 μg H2-K^d Strep-tag® II peptide multimer reagent (IBA GmbH) per 1×10^6 cells at 4° C. for 30 min. For epitope-tag staining cells were washed, fixed briefly in 1% paraformaldehyde, and subsequently stained for anti-HSV tag using an unconjugated primary mouse or rat mAb (e.g. TB067, Novagen) and a secondary anti-mouse or anti-rat-PE antibody (e.g. A85-1, PharMingen). Flow cytometry was performed using a FACSCalibur (Becton Dickinson) and FlowJo software. […] Conventional ^51Cr-release and ^3H-thymidine incorporation assays were performed as described before (18).
Phenotypic changes of cell populations have not been reported so far following epitope-specific T cell staining at low temperatures (4° C.). Under these conditions, TCR-MHC mediated signalling events become not activated. MHC multimer staining at higher temperatures (e.g. at room temperature (RT), or at 37° C.) has been performed to improve the intensity and/or stabilty of the fluorescent signal through epitope-specific internalization of the multimer. In order to analyze the impact of differential treatment of T cells on their phenotype, we compared LLO91-99-specific T cell lines following staining with LLO91-99/H2-K^d tetramers at 4° C. or 37° C. As a negative control, MHC tetramers containing different Listeria epitope ([…]) were used; these reagents cannot bind to TCRs of LLO91-99-specific T cells, thus controlling for potential peptide-independent effects.

[5] = molecular target: T1, Strep-Tactin® polypeptide (mutated streptavidin) (Streptomyces avidinii, UniProt P22629, E68V/S69T/V71R); settings: read-out: Kd of Strep-tag II peptide with Strep-Tactin; cited from earlier work
T1 construct: literature IBA GmbH
T1 sequence (P22629 38-163 E68V/S69T/V71R): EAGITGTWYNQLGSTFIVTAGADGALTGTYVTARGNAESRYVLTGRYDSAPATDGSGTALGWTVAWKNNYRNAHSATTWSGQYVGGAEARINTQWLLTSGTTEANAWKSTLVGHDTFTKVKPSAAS

Substance | proliferation in response to antigen or mitogenic stimulation [1] | lysis in the absence of peptide (spontaneous/bystander lysis) ([2]; reagent not dissociated) | maximum % specific lysis ([2]; stained CTLs washed, then 37° C., constant effector to target ratio) | peptide sensitivity of cytotoxicity ([2]; various concentrations of LLO91-99 peptide) | protection against Listeria infection following adoptive transfer ([3]; 4.1×10^6 cells, reagent not dissociated) | LLO91-99-specific T cells recovered from recipient mice after transfer ([3]; compared to control cells) | protection against Listeria infection (viable bacteria in spleen 48 h) ([3]; transfer of 1×10^6 treated CTLs) | protection against Listeria infection (viable bacteria in spleen 48 h) ([3]; transfer of 1×10^7 treated CTLs, listed as LLO91-99/H2-K^d tetramer reagents) | protection against Listeria infection (viable bacteria in spleen 48 h) ([3]; transfer of 1×10^7 treated CTLs, listed as binding MHC tetramers) | MHC tetramer staining ([4]; 2 h incubation at 4° C.) | MHC tetramer staining ([4]; 2 h incubation at 37° C.) | annexin V binding (early marker of apoptosis) ([4]; after staining at 37° C.) | surface TCR expression ([4]; after staining at 37° C.) | immunofluorescence microscopy staining pattern ([4]; incubation at 4° C.) | immunofluorescence microscopy staining pattern ([4]; incubation at 37° C.) | Kd [5] [µM]
LLO91-99/H2-K^d tetramers: conventional tetramers of H2-K^d/LLO91-99 complexes with PE- or Alexa546-conjugated streptavidin | poorly proliferate | increased lysis in the absence of LLO91-99 peptide addition | reduction in maximum % specific lysis | decreased peptide sensitivity | significantly reduced protection | much lower numbers | indistinguishable from untreated mice | dramatic loss of protective capacity | still confer some significant Listeria-specific protection | high intensity staining | reduced and more diffuse staining pattern | increased binding of annexin V | substantial downregulation of surface TCR | typical surface-staining pattern | most multimers are internalized | 
WSHPQFEK [Strep-tag® II peptide] |  |  |  |  |  |  |  |  |  |  |  |  |  |  |  | ~1

Source: patent US8298782B2, “Reversible MHC multimer staining for functional purification of antigen-specific T cells” (priority 2000, dated 2012)
